In patent US5686466A, “Tricyclic condensed heterocyclic compounds their production and use” (priority 1993, dated 1997):
Structures can show the parent of a compound that is named as a salt.

Tests used:
[1] = tested on: [3H]-serotonin (5-HT) uptake; test: monoamine uptake inhibition, [3H]-serotonin (5-HT), crude synaptosomal preparations of cerebral cortex and hippocampus; assay type: biochemical; conditions: [^3 H]-HT 10 nM; 37° C; rat synaptosomes; read-out: Monoamine Reuptake Inhibitory Activity IC50, 5-HT
Method: (§1) Effects of the compound of this invention on monoamine uptake were investigated using [^3 H]-norepinephirine(NE) and [3H]-serotonin (5-HT). Rats were sacrificed by decapitation. The cerebral cortex and hippocampus were removed and homogenized in 10-15 volumes (W/V) of an ice-cold medium containing 0.32M sucrose. Crude synaptosomal preparations (P2) were isolated after differential centrifugation at 1000×g for 10 min and 20,000×g for 30 min at 4° C. Synaptosomal membranes were suspended in Krebs-Ringer bicarbonate (KRB) solution (116 mM NaCl, 4.8 mM KCl, 1.3 mM CaCl2, 1.2 mM MgSO4, 1.2 mM NaH2 PO4, 25 mM NaHCO3, 0.1 mM EDTA-2Na, 11.1 mM D-glucose, 0.11 mM L-ascorbic acid, 0.01 mM pargyline). Synaptosomal membrane suspension (900 μl) was preincubated with the test compound dissolved in DMSO solution at 37° C. for 5 min. The reaction was initiated by addition of 100 μl of [^3 H]-NE (11 nM in final concentration) or [^3 H]-HT (10 nM in final concentration). Five minutes later, the reaction was stopped by the addition of 4 ml of ice-cold KRB and the reaction mixture was filtered through Whatman CF/B. Filters were washed twice with 4 ml of KRB and the radioactivity bound was counted with liquid scintillant. Imipramine was used as positive control.

[2] = tested on: [^3 H]-norepinephirine(NE) uptake; test: monoamine uptake inhibition, [^3 H]-norepinephirine (NE), crude synaptosomal preparations of cerebral cortex and hippocampus; assay type: biochemical; conditions: [^3 H]-NE 11 nM; 37° C; rat synaptosomes; read-out: Monoamine Reuptake Inhibitory Activity IC50, NE
Method: as §1

Acetylcholinesterase = target: T1, Acetylcholinesterase (Rattus norvegicus, UniProt P37136); test: cholinesterase inhibitory activity using (acetyl-[^3 H])-acetylcholine, S1 fraction of rat cerebral cortex homogenate; assay type: biochemical, male Wistar rat; conditions: 30 min incubation
T1 construct: Using the S1 fraction of a male Wistar rat cerebral cortex homogenate as a source of cholinesterase; from tissue; host or cells: male Wistar rat cerebral cortex homogenate, S1 fraction
T1 sequence (P37136 32-614): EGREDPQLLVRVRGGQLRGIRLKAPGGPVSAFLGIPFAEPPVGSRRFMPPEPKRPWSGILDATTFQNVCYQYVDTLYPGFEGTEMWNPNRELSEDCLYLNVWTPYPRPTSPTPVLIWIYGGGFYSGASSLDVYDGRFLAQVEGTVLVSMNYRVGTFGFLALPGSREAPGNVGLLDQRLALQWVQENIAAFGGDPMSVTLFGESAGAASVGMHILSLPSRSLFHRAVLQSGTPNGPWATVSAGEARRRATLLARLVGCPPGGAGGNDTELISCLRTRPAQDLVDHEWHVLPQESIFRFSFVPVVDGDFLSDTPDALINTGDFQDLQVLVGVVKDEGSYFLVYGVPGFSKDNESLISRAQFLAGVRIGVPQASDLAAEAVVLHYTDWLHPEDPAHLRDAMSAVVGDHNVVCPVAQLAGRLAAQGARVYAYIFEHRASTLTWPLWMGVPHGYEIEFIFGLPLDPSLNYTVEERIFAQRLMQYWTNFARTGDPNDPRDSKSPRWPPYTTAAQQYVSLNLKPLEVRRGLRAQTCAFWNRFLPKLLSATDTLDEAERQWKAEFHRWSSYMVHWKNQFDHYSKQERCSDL
Method: The cholinesterase inhibitory activity of the compound of the present invention was tested, using (acetyl-[^3 H])-acetylcholine. Using the S1 fraction of a male Wistar rat cerebral cortex homogenate as a source of cholinesterase, (acetyl-[^3 H])-acetylcholine, as a substrate, and the test compound, as a sample, were incubated for 30 minutes. After the reaction was terminated, a toluene scintillator was added and the reaction mixture was shaken to migrate the [^3 H]-acetic acid resulting from the reaction to the toluene layer, where radioactivity was counted using a liquid scintillation counter to determine the cholinesterase inhibitory activity.
The sample's cholinesterase inhibitory activity was expressed by 50% inhibitory concentration (IC50).

[3] = background art; cited from earlier work

Structure (SMILES): O=C(CCN1CCC(Cc2ccccc2)CC1)c1cc2c3c(c1)CCN3C(=O)CC2 [31-4]
- IC50 [1]: 20.7 nM
- IC50 [2]: 160 nM
- IC50 (Acetylcholinesterase): 188 nM

Structure (SMILES): O=C(CCC1CCN(Cc2ccccc2)CC1)c1ccc2c3c1CCCC3CN2 (centres unmarked) [compound 4, 1-(1,2,2a,3,4,5-Hexahydrobenz[cd]indol-6-yl)-3-[1-(phenylmethyl)piperidin-4-yl]-1-propanone dihydrochloride]
- IC50 [1]: 601 nM
- IC50 [2]: 347 nM
- IC50 (Acetylcholinesterase): 91.8 nM

Structure (SMILES): Cc1ccccc1CN1CCN(CCC(=O)c2cc3c4c(c2)CC(=O)N4CCC3)CC1 [compound 23, 8-[3-[4-[(2-Methylphenyl)methyl]-1-piperazinyl]-1-oxopropyl]-5,6-dihydro-4H-pyroro[3,2,1-ij]quinolin-2(1H)-one dihydrochloride]
- IC50 [1]: 66.8 nM
- IC50 [2]: 2430 nM
- IC50 (Acetylcholinesterase): 61.4 nM

Structure (SMILES): CNC(=O)Oc1ccc2c(c1)[C@]1(C)CCN(C)[C@@H]1N2C [physostigmine]
- duration of action [3]: short duration of action
- toxicity [3]: strong toxicity
